Test results reported in patent US12540131B2 (Merck Sharp & Dohme LLC, priority 2019, dated 2026).

Target: GST tagged truncated human mutant G2019S LRRK2 (Homo sapiens (Human), UniProt Q5S007, G2019S)
Test: LRRK2 Km ATP LanthaScreen Assay
Type: biochemical
Conditions: G2019S LRRK2, 134 μM ATP (Km ATP), mean values; for IC50: read-out: LRRK2 pIC50 (converted)
Outline: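 Enzyme (GST-tagged, truncated) was preincubated with compound for 15 min at RT in 50 mM Tris pH 8.5, 10 mM MgCl2, 0.01% Brij-35, 1 mM EGTA, 2 mM DTT and 0.05 mM orthovanadate. Fluorescein-LRRKtide and 134 μM ATP (Km) were then added for 90 min. EDTA and Tb-anti-pERM antibody stopped the reaction; the TR-FRET 520/495 ratio gave 4-parameter IC50s, reported as mean pIC50.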

Chain of GST tagged truncated human mutant G2019S LRRK2 (Q5S007 970-2527 G2019S): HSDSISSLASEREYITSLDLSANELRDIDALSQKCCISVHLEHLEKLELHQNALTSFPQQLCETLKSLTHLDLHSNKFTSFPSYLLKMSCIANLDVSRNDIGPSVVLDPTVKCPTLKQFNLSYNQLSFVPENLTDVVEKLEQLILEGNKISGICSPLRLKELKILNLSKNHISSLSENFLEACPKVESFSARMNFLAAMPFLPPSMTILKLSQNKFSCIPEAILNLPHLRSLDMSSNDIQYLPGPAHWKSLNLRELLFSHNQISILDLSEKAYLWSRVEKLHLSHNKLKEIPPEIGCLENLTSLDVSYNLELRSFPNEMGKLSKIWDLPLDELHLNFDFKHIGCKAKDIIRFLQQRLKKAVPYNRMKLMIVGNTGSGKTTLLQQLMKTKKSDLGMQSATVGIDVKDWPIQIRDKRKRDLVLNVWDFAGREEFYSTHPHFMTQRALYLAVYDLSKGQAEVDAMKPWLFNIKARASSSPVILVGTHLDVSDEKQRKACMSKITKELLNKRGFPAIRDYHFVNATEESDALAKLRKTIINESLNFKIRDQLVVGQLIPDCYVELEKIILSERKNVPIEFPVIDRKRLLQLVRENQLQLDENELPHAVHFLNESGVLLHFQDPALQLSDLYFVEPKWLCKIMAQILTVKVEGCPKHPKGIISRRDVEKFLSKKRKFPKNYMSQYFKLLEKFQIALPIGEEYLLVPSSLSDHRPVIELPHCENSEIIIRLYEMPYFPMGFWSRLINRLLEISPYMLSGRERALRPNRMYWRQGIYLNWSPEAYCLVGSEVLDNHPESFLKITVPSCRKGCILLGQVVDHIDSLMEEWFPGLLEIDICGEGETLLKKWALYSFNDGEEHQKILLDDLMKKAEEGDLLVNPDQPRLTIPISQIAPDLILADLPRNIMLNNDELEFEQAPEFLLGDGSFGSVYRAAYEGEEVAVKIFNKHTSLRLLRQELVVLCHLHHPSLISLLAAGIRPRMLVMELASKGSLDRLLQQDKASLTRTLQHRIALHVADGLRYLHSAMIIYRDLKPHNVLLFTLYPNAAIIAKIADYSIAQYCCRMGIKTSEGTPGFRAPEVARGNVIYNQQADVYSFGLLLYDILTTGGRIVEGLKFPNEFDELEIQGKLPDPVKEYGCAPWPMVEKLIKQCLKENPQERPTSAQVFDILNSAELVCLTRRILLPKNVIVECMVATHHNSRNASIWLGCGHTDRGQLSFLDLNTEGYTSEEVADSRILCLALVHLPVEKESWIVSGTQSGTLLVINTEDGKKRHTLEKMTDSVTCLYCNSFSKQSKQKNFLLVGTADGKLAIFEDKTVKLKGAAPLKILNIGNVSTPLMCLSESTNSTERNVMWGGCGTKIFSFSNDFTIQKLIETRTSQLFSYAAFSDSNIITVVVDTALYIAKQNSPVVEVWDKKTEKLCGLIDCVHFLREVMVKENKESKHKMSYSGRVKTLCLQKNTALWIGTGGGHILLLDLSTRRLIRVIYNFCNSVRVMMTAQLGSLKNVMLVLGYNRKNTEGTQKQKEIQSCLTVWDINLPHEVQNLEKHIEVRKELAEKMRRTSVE

Row | SMILES | LRRK2 pIC50 | IC50
1 | CC1OCC1N1CCC(c2cc3nc(Nc4cnn(CC(C)(C)O)c4Cl)ncc3cc2Cl)CC1 (single isomer, unassigned) [Ex-4.76, (2R,3R) or (2S,3S) or (2S,3R) or (2R,3S) 1-[5-chloro-4-({6-chloro-7-[1-(2-methyloxetan-3-yl)piperidin-4-yl]quinazolin-2-yl}amino)-1H-pyrazol-1-yl]-2-methylpropan-2-ol] | >9.20 | 
2 | CC(C)(O)Cn1ncc(Nc2ncc3cc(Cl)c(C4CCN(C5CCOC5)CC4)cc3n2)c1Cl (single isomer, unassigned) [Ex-4.77, (S) or (R) 1-[5-chloro-4-({6-chloro-7-[1-(oxolan-3-yl)piperidin-4-yl]quinazolin-2-yl}amino)-1H-pyrazol-1-yl]-2-methylpropan-2-ol] |  | 1.82 nM
3 | CC(C)(O)Cn1ncc(Nc2ncc3cc(Cl)c(C4CCN(C5CCOC5)CC4)cc3n2)c1Cl (single isomer, unassigned) [Ex-4.79, (S) or (R) 1-[5-chloro-4-({6-chloro-7-[1-(oxolan-3-yl)piperidin-4-yl]quinazolin-2-yl}amino)-1H-pyrazol-1-yl]-2-methylpropan-2-ol] |  | < 0.631 nM
4 | Cc1cc2cnc(Nc3cnn(CC(C)(C)O)c3Cl)nc2cc1[C@@H]1CCN(C2COC2)C[C@H]1F (single isomer, unassigned) [Ex-4.81, (3S,4S) or (3R,4R) 1-[5-chloro-4-({7-[3-fluoro-1-(oxetan-3-yl)piperidin-4-yl]-6-methylquinazolin-2-yl}amino)-1H-pyrazol-1-yl]-2-methylpropan-2-ol] | 9.13 | 
5 | Cc1cc2cnc(Nc3cnn(C4CC4)c3Cl)nc2cc1[C@@H]1CCN(C2COC2)C[C@H]1F (single isomer, unassigned) [Ex-4.82, (3S,4S) or (3R,4R) N-(5-chloro-1-cyclopropyl-1H-pyrazol-4-yl)-7-[3-fluoro-1-(oxetan-3-yl)piperidin-4-yl]-6-methylquinazolin-2-amine] | >9.20 | 
6 | Cc1cc2cnc(Nc3cnn(CC(C)(C)O)c3Cl)nc2cc1[C@H]1CCN(C2COC2)C[C@@H]1F (single isomer, unassigned) [Ex-4.83, (3S,4S) or (3R,4R) 1-[5-chloro-4-({7-[3-fluoro-1-(oxetan-3-yl)piperidin-4-yl]-6-methylquinazolin-2-yl}amino)-1H-pyrazol-1-yl]-2-methylpropan-2-ol] | 9.14 | 
7 | Cc1cc2cnc(Nc3cnn(C4CC4)c3Cl)nc2cc1[C@H]1CCN(C2COC2)C[C@@H]1F (single isomer, unassigned) [Ex-4.85, (3S,4S) or (3R,4R) N-(5-chloro-1-cyclopropyl-1H-pyrazol-4-yl)-7-[3-fluoro-1-(oxetan-3-yl)piperidin-4-yl]-6-methylquinazolin-2-amine] | 8.76 | 
8 | Cc1nsc(Nc2ncc3cc(Cl)c([C@@H]4CCN(C5COC5)C[C@H]4F)cc3n2)c1Cl (single isomer, unassigned) [Ex-4.87, (3S,4S) or (3R,4R) 6-chloro-N-(4-chloro-3-methyl-1,2-thiazol-5-yl)-7-[3-fluoro-1-(oxetan-3-yl)piperidin-4-yl]quinazolin-2-amine] |  | 12.6 nM
9 | Cc1nsc(Nc2ncc3cc(Cl)c([C@@H]4CCN(C5COC5)C[C@H]4F)cc3n2)c1Cl (single isomer, unassigned) [Ex-4.88, (3S,4S) or (3R,4R) 6-chloro-N-(4-chloro-3-methyl-1,2-thiazol-5-yl)-7-[3-fluoro-1-(oxetan-3-yl)piperidin-4-yl]quinazolin-2-amine] |  | 3.8 nM
10 | CC1(n2ncc(Nc3ncc4cc(Cl)c([C@@H]5CCNC[C@H]5F)cc4n3)c2Cl)CC1 (single isomer, unassigned) [Ex-4.91, (3S,4S) or (3R,4R) 6-chloro-N-[5-chloro-1-(1-methylcyclopropyl)-1H-pyrazol-4-yl]-7-(3-fluoropiperidin-4-yl)quinazolin-2-amine] | >9.20 | 
11 | CC1(n2ncc(Nc3ncc4cc(Cl)c([C@H]5CCNC[C@@H]5F)cc4n3)c2Cl)CC1 (single isomer, unassigned) [Ex-4.92, (3S,4S) or (3R,4R) 6-chloro-N-[5-chloro-1-(1-methylcyclopropyl)-1H-pyrazol-4-yl]-7-(3-fluoropiperidin-4-yl)quinazolin-2-amine] | >9.20 | 
12 | CC1(N2CC[C@@H](c3cc4nc(Nc5cnn(C6CC6)c5Cl)ncc4cc3Cl)[C@H](F)C2)COC1 (single isomer, unassigned) [Ex-4.99, (3S,4S) or (3R,4R) 6-chloro-N-(5-chloro-1-cyclopropyl-1H-pyrazol-4-yl)-7-[3-fluoro-1-(3-methyloxetan-3-yl)piperidin-4-yl]quinazolin-2-amine] | 8.01 | 
13 | N#CC1COCC1N1CCC(c2cc3nc(Nc4cnn(C5CC5)c4Cl)ncc3cc2Cl)CC1 (single isomer, unassigned) [Ex-4.102, (3S,4S) or (3R,4R) or (3S,4R) or (3R,4S) 4-(4-(6-chloro-2-((5-chloro-1-cyclopropyl-1H-pyrazol-4-yl)amino)quinazolin-7-yl)piperidin-1-yl)tetrahydrofuran-3-carbonitrile] | >9.20 | 
14 | N#CC1COCC1N1CCC(c2cc3nc(Nc4cnn(C5CC5)c4Cl)ncc3cc2Cl)CC1 (single isomer, unassigned) [Ex-4.103, (3S,4S) or (3R,4R) or (3S,4R) or (3R,4S) 4-(4-(6-chloro-2-((5-chloro-1-cyclopropyl-1H-pyrazol-4-yl)amino)quinazolin-7-yl)piperidin-1-yl)tetrahydrofuran-3-carbonitrile] | 8.49 | 
15 | O[C@H]1COC[C@H]1N1CCC(c2cc3nc(Nc4cnn(C5CC5)c4Cl)ncc3cc2Cl)CC1 (single isomer, unassigned) [Ex-4.104, (3S,4S) or (3R,4R) 4-(4-(6-chloro-2-((5-chloro-1-cyclopropyl-1H-pyrazol-4-yl)amino)quinazolin-7-yl)piperidin-1-yl)tetrahydrofuran-3-ol] | >9.20 | 
16 | O[C@@H]1COC[C@@H]1N1CCC(c2cc3nc(Nc4cnn(C5CC5)c4Cl)ncc3cc2Cl)CC1 (single isomer, unassigned) [Ex-4.105, (3S,4S) or (3R,4R) 4-(4-(6-chloro-2-((5-chloro-1-cyclopropyl-1H-pyrazol-4-yl)amino)quinazolin-7-yl)piperidin-1-yl)tetrahydrofuran-3-ol] | 8.51 | 
17 | CC1CC(c2cc3nc(Nc4cnn(C5CC5)c4Cl)ncc3cc2Cl)CCN1C1COC1 (single isomer, unassigned) [Ex-4.106, (2S,4S) or (2R,4R) or (2S,4R) or (2R,4S) 6-chloro-N-(5-chloro-1-cyclopropyl-1H-pyrazol-4-yl)-7-(2-methyl-1-(oxetan-3-yl)piperidin-4-yl)quinazolin-2-amine] | >9.20 | 
18 | CC1CC(c2cc3nc(Nc4cnn(C5CC5)c4Cl)ncc3cc2Cl)CCN1C1COC1 (single isomer, unassigned) [Ex-4.107, (2S,4S) or (2R,4R) or (2S,4R) or (2R,4S) 6-chloro-N-(5-chloro-1-cyclopropyl-1H-pyrazol-4-yl)-7-(2-methyl-1-(oxetan-3-yl)piperidin-4-yl)quinazolin-2-amine] | 8.52 | 
19 | N#CC1CCC(N2CC[C@@H](c3cc4nc(Nc5cnn(C6CC6)c5Cl)ncc4cc3Cl)[C@H](F)C2)C1 (single isomer, unassigned) [Ex-4.108, (1R,3S)-3-((3S,4S) or (1S,3R)-3-((3S,4S) or (1R,3R)-3-((3S,4S) or (1S,3S)-3-((3S,4S) or (1R,3S)-3-((3R,4R) or (1S,3R)-3-((3R,4R) or (1R,3R)-3-((3R,4R) or 1S,3S)-3-((3R,4R) 4-(6-chloro-2-((5-chloro-1-cyclopropyl-1H-pyrazol-4-yl)amino)quinazolin-7-yl)-3-fluoropiperidin-1-yl)cyclopentane-1-carbonitrile] | 8.49 | 
20 | N#CC1CCC(N2CC[C@@H](c3cc4nc(Nc5cnn(C6CC6)c5Cl)ncc4cc3Cl)[C@H](F)C2)C1 (single isomer, unassigned) [Ex-4.109, (1R,3S)-3-((3S,4S) or (1S,3R)-3-((3S,4S) or (1R,3R)-3-((3S,4S) or (1S,3S)-3-((3S,4S) or (1R,3S)-3-((3R,4R) or (1S,3R)-3-((3R,4R) or (1R,3R)-3-((3R,4R) or 1S,3S)-3-((3R,4R) 4-(6-chloro-2-((5-chloro-1-cyclopropyl-1H-pyrazol-4-yl)amino)quinazolin-7-yl)-3-fluoropiperidin-1-yl)cyclopentane-1-carbonitrile] | 7.99 | 
21 | N#CC1CCC(N2CC[C@@H](c3cc4nc(Nc5cnn(C6CC6)c5Cl)ncc4cc3Cl)[C@H](F)C2)C1 (single isomer, unassigned) [Ex-4.110, (1R,3S)-3-((3S,4S) or (1S,3R)-3-((3S,4S) or (1R,3R)-3-((3S,4S) or (1S,3S)-3-((3S,4S) or (1R,3S)-3-((3R,4R) or (1S,3R)-3-((3R,4R) or (1R,3R)-3-((3R,4R) or 1S,3S)-3-((3R,4R) 4-(6-chloro-2-((5-chloro-1-cyclopropyl-1H-pyrazol-4-yl)amino)quinazolin-7-yl)-3-fluoropiperidin-1-yl)cyclopentane-1-carbonitrile] | 8.73 | 
22 | N#CC1CCC(N2CC[C@@H](c3cc4nc(Nc5cnn(C6CC6)c5Cl)ncc4cc3Cl)[C@H](F)C2)C1 (single isomer, unassigned) [Ex-4.111, (1R,3S)-3-((3S,4S) or (1S,3R)-3-((3S,4S) or (1R,3R)-3-((3S,4S) or (1S,3S)-3-((3S,4S) or (1R,3S)-3-((3R,4R) or (1S,3R)-3-((3R,4R) or (1R,3R)-3-((3R,4R) or 1S,3S)-3-((3R,4R) 4-(6-chloro-2-((5-chloro-1-cyclopropyl-1H-pyrazol-4-yl)amino)quinazolin-7-yl)-3-fluoropiperidin-1-yl)cyclopentane-1-carbonitrile] | 8.55 | 
